Experimental findings from ChEMBL document CHEMBL4421720, “Tetrahydropyridopyrazines modulators of gpr6” (2016) are described below.

Structures are written as SMILES. pIC50: −log10 of the molar value.

The experiment has as its target G-protein coupled receptor 6 (Homo sapiens, UniProt P46095). In words: Modulation activity at GPR6 receptor (unknown origin) expressed in CHO-K1 cells assessed as inhibition of constitutive cAMP activity incubated for 45 mins by Perkin Elmer Lance HTRF Ultrac-AMP assay. The experiment is classed as functional, cell-based.

Sequence of G-protein coupled receptor 6 (P46095 whole entry): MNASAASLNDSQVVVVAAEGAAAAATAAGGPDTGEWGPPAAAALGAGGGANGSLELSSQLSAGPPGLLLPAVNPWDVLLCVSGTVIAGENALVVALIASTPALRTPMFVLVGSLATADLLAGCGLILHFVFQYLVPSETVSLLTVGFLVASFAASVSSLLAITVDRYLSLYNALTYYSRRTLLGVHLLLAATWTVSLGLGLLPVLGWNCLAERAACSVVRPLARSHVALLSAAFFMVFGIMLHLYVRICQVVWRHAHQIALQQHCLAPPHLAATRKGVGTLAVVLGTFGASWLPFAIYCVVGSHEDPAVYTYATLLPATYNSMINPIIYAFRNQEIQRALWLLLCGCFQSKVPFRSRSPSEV

In the case of `CC(=O)N1CCc2nc(N3CCC(C(=O)c4cc(Cl)ccc4F)CC3)c(NC(C)C)nc2C1`, the pIC50 was 4.86.

For the compound `CC(C)Nc1nc2c(nc1N1CCC(C(=O)c3cc(Cl)ccc3F)CC1)CCN(C)C2`, for the setting “cho-k1”, the pIC50 is 4.86.
